Measured values: US11957759B1, “Rapidly accelerated fibrosarcoma (RAF) degrading compounds and associated methods of use” (Arvinas Operations, Inc., priority 2022, dated 2024)

Tests used:
B-RAF G466V = biological target: T1, B-RAF G466V (Homo sapiens, UniProt P15056, G466V); experiment: Target protein degradation, assay D: T-Rex 293 cells, HA-BRAF_G466V, 384 well format; format: cell-based; details: T-Rex 293 HA-BRAF_G466V cells, 24 hours, Examples 83-269; for DC50: Assay D; for Dmax: T-REx-293, Assay D
T1 construct: expressed in transfected cells; host or cells: T-Rex 293 cells (Invitrogen #R71007)
Outline: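 Degradation measured by high-content imaging of anti-HA immunofluorescence in fixed T-Rex 293 cells carrying inducible HA-BRAF G466V (1 ng/mL doxycycline), after 24 h PROTAC exposure at 37 °C over 300 nM–5 pM (1:3, 11 points, 0.5% DMSO). Outputs DC50 and Dmax as % of control; nuclei counts against DMSO wells gauge toxicity.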

B-RAF V600E = biological target: T2, B-RAF V600E (Homo sapiens, UniProt P15056, V600E); experiment: Target protein degradation, assay C: T-Rex 293 cells, HA-BRAF_V600E, 384 well format; format: cell-based; details: T-Rex 293 HA-BRAF_V600E cells, 24 hours, Examples 83-269; for DC50: Assay C; for Dmax: T-REx-293, Assay C
T2 construct: expressed in transfected cells; host or cells: T-Rex 293 cells (Invitrogen #R71007)
Outline: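 After 24 h exposure to an 11-point 1:3 series (300 nM–5 pM, 0.5% DMSO), fixed T-Rex 293 cells carrying HA-BRAF V600E (induced with 1 ng/mL doxycycline) were stained anti-HA and imaged. DC50 and Dmax were derived from BRAF intensity relative to control, and cytotoxicity from nuclear counts.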

T1 sequence (P15056 whole entry G466V): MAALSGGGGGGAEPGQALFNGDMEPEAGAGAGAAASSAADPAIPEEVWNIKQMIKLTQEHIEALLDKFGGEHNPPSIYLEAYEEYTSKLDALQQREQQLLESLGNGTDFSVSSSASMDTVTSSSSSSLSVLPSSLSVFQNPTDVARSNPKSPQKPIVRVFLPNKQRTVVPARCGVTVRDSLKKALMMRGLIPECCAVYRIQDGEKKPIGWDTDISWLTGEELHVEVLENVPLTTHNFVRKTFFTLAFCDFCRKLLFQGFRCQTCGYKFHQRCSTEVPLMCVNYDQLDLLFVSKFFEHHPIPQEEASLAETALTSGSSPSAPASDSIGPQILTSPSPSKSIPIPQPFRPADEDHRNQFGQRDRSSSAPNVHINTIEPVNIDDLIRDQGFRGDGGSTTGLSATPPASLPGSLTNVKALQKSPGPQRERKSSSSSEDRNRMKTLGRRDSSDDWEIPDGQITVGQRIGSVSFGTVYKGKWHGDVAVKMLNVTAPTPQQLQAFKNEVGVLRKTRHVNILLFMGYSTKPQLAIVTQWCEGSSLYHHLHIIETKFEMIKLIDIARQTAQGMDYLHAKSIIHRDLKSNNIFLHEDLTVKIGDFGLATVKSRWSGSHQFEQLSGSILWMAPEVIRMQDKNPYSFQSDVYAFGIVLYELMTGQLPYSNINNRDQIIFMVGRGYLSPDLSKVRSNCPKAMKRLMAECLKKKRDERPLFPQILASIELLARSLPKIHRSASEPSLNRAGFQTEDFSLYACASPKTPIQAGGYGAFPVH
T2 sequence (P15056 whole entry V600E): as the sequence (P15056 whole entry G466V) above, with V466G, V600E counted along it

Row | Structure (SMILES) | DC50 (B-RAF G466V) | DC50 (B-RAF V600E) | Dmax (B-RAF V600E) | Dmax (B-RAF G466V)
1 | N#Cc1c(NS(=O)(=O)N2CC[C@@H](F)C2)ccc(F)c1Oc1ccc2ncn(-c3ccc(N4CCC(COCC5CCN(c6ccc7c(c6)C(=O)N(C6CCC(=O)NC6=O)C7=O)CC5)CC4)nc3)c(=O)c2c1 (stereo partly drawn) [Example 144, (3R)-N-(2-cyano-3-{[3-(6-{4-[{{1-[2-(2,6-dioxopiperidin-3-yl)-1,3-dioxo-2,3-dihydro-1H-isoindol-5-yl]piperidin-4-yl}methoxy)methyl]piperidin-1-yl}pyridin-3-yl)-4-oxo-3,4-dihydroquinazolin-6-yl]oxy}-4-fluorophenyl)-3-fluoropyrrolidine-1-sulfonamide] | 0.01 to 0.03 µM | 0.005 to 0.05 µM | ≤ 35% | ≤ 35%
2 | N#Cc1c(NS(=O)(=O)N2CC[C@@H](F)C2)ccc(F)c1Oc1ccc2ncn(-c3ccc(N4CCC(CN5CCC6(CC5)CCN(c5ccc7c(c5)C(=O)N(C5CCC(=O)NC5=O)C7=O)CC6)CC4)nc3)c(=O)c2c1 (stereo partly drawn) [Example 146, (3R)-N-{2-cyano-3-[(3-{6-[4-({9-[2-(2,6-dioxopiperidin-3-yl)-1,3-dioxo-2,3-dihydro-1H-isoindol-5-yl]-3,9-diazaspiro[5.5]undecan-3-yl}methyl)piperidin-1-yl]pyridin-3-yl}-4-oxo-3,4-dihydroquinazolin-6-yl)oxy]-4-fluorophenyl}-3-fluoropyrrolidine-1-sulfonamide] | 0.001 to 0.01 µM | 0.005 to 0.05 µM | 35 to 70% | 35 to 70%
3 | N#Cc1c(NS(=O)(=O)N2CC[C@@H](F)C2)ccc(F)c1Oc1ccc2ncn(-c3ccc(N4CCC(CN5CCN(CC6CCN(c7ccc8c(c7)C(=O)N(C7CCC(=O)NC7=O)C8=O)CC6)CC5)CC4)nc3)c(=O)c2c1 (stereo partly drawn) [Example 147, (3R)-N-[2-cyano-3-({3-[6-(4-{[4-({1-[2-(2,6-dioxopiperidin-3-yl)-1,3-dioxo-2,3-dihydro-1H-isoindol-5-yl]piperidin-4-yl}methyl)piperazin-1-yl]methyl}piperidin-1-yl)pyridin-3-yl]-4-oxo-3,4-dihydroquinazolin-6-yl}oxy)-4-fluorophenyl]-3-fluoropyrrolidine-1-sulfonamide] | 0.001 to 0.01 µM | 0.005 to 0.05 µM | 35 to 70% | 35 to 70%

Other lines, results leading:

Row | DC50 (B-RAF G466V) | DC50 (B-RAF V600E) | Dmax (B-RAF V600E) | Dmax (B-RAF G466V) | Structure (SMILES)
4 | > 0.03 µM | ≤ 0.005 µM | 35 to 70% | – | N#Cc1c(NS(=O)(=O)N2CC[C@@H](F)C2)ccc(F)c1Oc1ccc2ncn(-c3ccc(N4CCN(c5ccc6c(c5)CN(C5CCC(=O)NC5=O)C6=O)CC4)nc3)c(=O)c2c1 (stereo partly shown) [Example 143]
5 | 0.001 to 0.01 µM | 0.05 to 0.5 µM | 35 to 70% | 35 to 70% | N#Cc1c(NS(=O)(=O)N2CC[C@@H](F)C2)ccc(F)c1Oc1ccc2ncn(-c3ccc(N4CCC5(CCN(CC6CCN(c7ccc8c(c7)C(=O)N(C7CCC(=O)NC7=O)C8=O)CC6)CC5)CC4)nc3)c(=O)c2c1 (stereo partly drawn) [Example 145, (3R)-N-{2-cyano-3-[(3-{6-[9-({1-[2-(2,6-dioxopiperidin-3-yl)-1,3-dioxo-2,3-dihydro-1H-isoindol-5-yl]piperidin-4-yl}methyl)-3,9-diazaspiro[5.5]undecan-3-yl]pyridin-3-yl}-4-oxo-3,4-dihydroquinazolin-6-yl)oxy]-4-fluorophenyl}-3-fluoropyrrolidine-1-sulfonamide]
6 | > 0.03 µM | 0.05 to 0.5 µM | ≤ 35% | – | N#Cc1c(NS(=O)(=O)N2CC[C@@H](F)C2)ccc(F)c1Oc1ccc2ncn(-c3ccc(N4CCC5(CCN(c6ccc7c(c6)C(=O)N(C6CCC(=O)NC6=O)C7=O)CC5)CC4)nc3)c(=O)c2c1 (stereo partly drawn) [Example 148, (3R)-N-(2-cyano-3-{[3-(6-{9-[2-(2,6-dioxopiperidin-3-yl)-1,3-dioxo-2,3-dihydro-1H-isoindol-5-yl]-3,9-diazaspiro[5.5]undecan-3-yl}pyridin-3-yl)-4-oxo-3,4-dihydroquinazolin-6-yl]oxy}-4-fluorophenyl)-3-fluoropyrrolidine-1-sulfonamide]
